The target of the test is HIS-TGFβR1 T204D (Homo sapiens (Human), UniProt P36897, T204D). The test can be described thus: HTRF probe-displacement assay, HIS-TGFβR1 T204D. The following applies: 1 hour at room temperature. In kind it is binding. A general note: TR-FRET usually uses a lanthanide donor and a delayed reading to cut background.

pIC50: −log10 of the molar value.

Chain of HIS-TGFβR1 T204D (P36897 34-503 T204D): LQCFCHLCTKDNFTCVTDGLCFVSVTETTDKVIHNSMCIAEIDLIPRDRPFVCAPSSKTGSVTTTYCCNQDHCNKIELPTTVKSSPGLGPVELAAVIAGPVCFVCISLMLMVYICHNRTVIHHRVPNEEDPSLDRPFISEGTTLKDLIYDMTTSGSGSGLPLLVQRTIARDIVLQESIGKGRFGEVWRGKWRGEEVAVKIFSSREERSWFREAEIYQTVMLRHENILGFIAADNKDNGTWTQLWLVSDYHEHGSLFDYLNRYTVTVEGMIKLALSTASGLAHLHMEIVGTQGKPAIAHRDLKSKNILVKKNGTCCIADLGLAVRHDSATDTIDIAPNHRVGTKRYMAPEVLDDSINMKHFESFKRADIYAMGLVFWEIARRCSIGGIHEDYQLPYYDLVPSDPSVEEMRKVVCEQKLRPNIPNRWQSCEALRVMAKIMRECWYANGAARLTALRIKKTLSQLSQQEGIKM

With `Fc1cnccc1Nc1nc(-c2ccccn2)nn2ccc(CNCCc3ccccn3)c12` [Example 304, 3-fluoro-N-[2-(pyridin-2-yl)-5-({[2-(pyridin-2-yl)ethyl]amino}methyl)pyrrolo[2,1-f][1,2,4]triazin-4-yl]pyridin-4-amine], the negative logarithm of the IC50 (pIC50) was 8.60. The same measure for `Cc1cnc(CNCc2ccn3nc(-c4ccccn4)nc(Nc4ccncc4F)c23)cn1` [Example 305, 3-fluoro-N-[5-({[(5-methylpyrazin-2-yl)methyl]amino}methyl)-2-(pyridin-2-yl)pyrrolo[2,1-f][1,2,4]triazin-4-yl]pyridin-4-amine]: 8.59. On to `Fc1cnccc1Nc1nc(-c2ccccn2)nn2ccc(CNc3ccc4[nH]nnc4c3)c12` [Example 306, N-({4-[(3-fluoropyridin-4-yl)amino]-2-(pyridin-2-yl)pyrrolo[2,1-f][1,2,4]triazin-5-yl}methyl)-1H-1,2,3-benzotriazol-5-amine], for which the pIC50 is 8.28. In turn, `Fc1cnccc1Nc1nc(-c2ccccn2)nn2ccc(CNC3CCNCC3)c12` [Example 307, 3-fluoro-N-(5-{[(piperidin-4-yl)amino]methyl}-2-(pyridin-2-yl)pyrrolo[2,1-f][1,2,4]triazin-4-yl)pyridin-4-amine] had a negative logarithm of the IC50 (pIC50) of 8.04. For the molecule `Cc1nnc(NCc2ccn3nc(-c4ccccn4)nc(Nc4ccncc4F)c23)s1` [Example 308, 3-fluoro-N-(5-{[(5-methyl-1,3,4-thiadiazol-2-yl)amino]methyl}-2-(pyridin-2-yl)pyrrolo[2,1-f][1,2,4]triazin-4-yl)pyridin-4-amine], the pIC50 is 8.33. Then `O[C@@H](CNCc1ccn2nc(-c3ccccn3)nc(Nc3ccncc3F)c12)c1ccccc1` [Example 310, (1R)-2-[({4-[(3-fluoropyridin-4-yl)amino]-2-(pyridin-2-yl)pyrrolo[2,1-f][1,2,4]triazin-5-yl}methyl)amino]-1-phenylethan-1-ol], with 8.40; and `Fc1cnccc1Nc1nc(-c2ccccn2)nn2ccc(CNC3CNC3)c12` [Example 311, N-(5-{[(azetidin-3-yl)amino]methyl}-2-(pyridin-2-yl)pyrrolo[2,1-f][1,2,4]triazin-4-yl)-3-fluoropyridin-4-amine], with 7.89. Then `COC(=O)Nc1cc(Nc2nc(-c3cccc(C(F)(F)F)n3)nn3cccc23)ccn1` [Example 312, Methyl N-[4-({2-[6-(trifluoromethyl)pyridin-2-yl]pyrrolo[2,1-f][1,2,4]triazin-4-yl}amino)pyridin-2-yl]carbamate], with 9.06. Molecule `CCC(=O)Nc1cc(Nc2nc(-c3cccc(C(F)(F)F)n3)nn3cccc23)ccn1` [Example 313, N-[4-({2-[6-(trifluoromethyl)pyridin-2-yl]pyrrolo[2,1-f][1,2,4]triazin-4-yl}amino)pyridin-2-yl]propanamide] gave a negative-log IC50 (pIC50) of 9.05. Then `CC(C)CC(=O)Nc1cc(Nc2nc(-c3cccc(C(F)(F)F)n3)nn3cccc23)ccn1` [Example 314, 3-methyl-N-[4-({2-[6-(trifluoromethyl)pyridin-2-yl]pyrrolo[2,1-f][1,2,4]triazin-4-yl}amino)pyridin-2-yl]butanamide], with 8.25. Then `NC(=O)c1cc(Nc2nc(-c3cccc(C(F)(F)F)n3)nn3cccc23)ccn1` [Example 315, 4-({2-[6-(trifluoromethyl)pyridin-2-yl]pyrrolo[2,1-f][1,2,4]triazin-4-yl}amino)pyridine-2-carboxamide], with 6.05; and `CN1CCN(CC(=O)Nc2cc(Nc3nc(-c4cccc(C(F)(F)F)n4)nn4cccc34)ccn2)CC1` [Example 316, 2-(4-methylpiperazin-1-yl)-N-[4-({2-[6-(trifluoromethyl)pyridin-2-yl]pyrrolo[2,1-f][1,2,4]triazin-4-yl}amino)pyridin-2-yl]acetamide], with 9.00. Then `Fc1ccc(-c2nc(Nc3cc(Cl)ncc3F)c3cccn3n2)nc1` [Example 317, 2-chloro-5-fluoro-N-[2-(5-fluoropyridin-2-yl)pyrrolo[2,1-f][1,2,4]triazin-4-yl]pyridin-4-amine], with 5.52; and `CS(=O)(=O)Nc1cc(Nc2nc(-c3cccc(C(F)(F)F)n3)nn3cccc23)ccn1` [Example 318, N-[4-({2-[6-(trifluoromethyl)pyridin-2-yl]pyrrolo[2,1-f][1,2,4]triazin-4-yl}amino)pyridin-2-yl]methanesulfonamide], with 5.40. For `CC(=O)N1CCN(CC(=O)Nc2cc(Nc3nc(-c4cccc(C(F)(F)F)n4)nn4cccc34)ccn2)CC1` [Example 320, 2-(4-acetylpiperazin-1-yl)-N-[4-({2-[6-(trifluoromethyl)pyridin-2-yl]pyrrolo[2,1-f][1,2,4]triazin-4-yl}amino)pyridin-2-yl]acetamide], the pIC50 was 9.07. `CC(C)(C)CC(=O)Nc1cc(Nc2nc(-c3cccc(C(F)(F)F)n3)nn3cccc23)ccn1` [Example 321, 3,3-dimethyl-N-[4-({2-[6-(trifluoromethyl)pyridin-2-yl]pyrrolo[2,1-f][1,2,4]triazin-4-yl}amino)pyridin-2-yl]butanamide] had a pIC50 of 7.04. Then `O=C(CN1CCNCC1)Nc1cc(Nc2nc(-c3cccc(C(F)(F)F)n3)nn3cccc23)ccn1` [Example 322, 2-(piperazin-1-yl)-N-[4-({2-[6-(trifluoromethyl)pyridin-2-yl]pyrrolo[2,1-f][1,2,4]triazin-4-yl}amino)pyridin-2-yl]acetamide], with 8.89; and `CC(=O)Nc1cc(Nc2nc(-c3ccc(F)cn3)nn3cccc23)c(F)cn1` [Example 323, N-(5-fluoro-4-{[2-(5-fluoropyridin-2-yl)pyrrolo[2,1-f][1,2,4]triazin-4-yl]amino}pyridin-2-yl)acetamide], with 7.80; and `CC(C)(O)CNC(=O)c1cc(Nc2nc(-c3cccc(C(F)(F)F)n3)nn3cccc23)ccn1` [Example 324, N-(2-hydroxy-2-methylpropyl)-4-({2-[6-(trifluoromethyl)pyridin-2-yl]pyrrolo[2,1-f][1,2,4]triazin-4-yl}amino)pyridine-2-carboxamide], with 5.36.

`O=C(CN1CC[C@H](O)C1)Nc1cc(Nc2nc(-c3cccc(C(F)(F)F)n3)nn3cccc23)ccn1` [Example 325, 2-[(3S)-3-hydroxypyrrolidin-1-yl]-N-[4-({2-[6-(trifluoromethyl)pyridin-2-yl]pyrrolo[2,1-f][1,2,4]triazin-4-yl}amino)pyridin-2-yl]acetamide] showed a pIC50 of 8.00. Then `O=C(Nc1cc(Nc2nc(-c3cccc(C(F)(F)F)n3)nn3cccc23)ccn1)[C@@H]1CCCN1` [Example 326, (2S)—N-[4-({2-[6-(trifluoromethyl)pyridin-2-yl]pyrrolo[2,1-f][1,2,4]triazin-4-yl}amino)pyridin-2-yl]pyrrolidine-2-carboxamide], with 7.06. The same measure for `O=C(CN1CC[C@@H](O)C1)Nc1cc(Nc2nc(-c3cccc(C(F)(F)F)n3)nn3cccc23)ccn1` [Example 327, 2-[(3R)-3-hydroxypyrrolidin-1-yl]-N-[4-({2-[6-(trifluoromethyl)pyridin-2-yl]pyrrolo[2,1-f][1,2,4]triazin-4-yl}amino)pyridin-2-yl]acetamide]: 9.52; for `CN1CCC(OCc2ccn3nc(-c4ccccn4)nc(Nc4ccncc4F)c23)CC1` [Example 328, 3-fluoro-N-(5-{[(1-methylpiperidin-4-yl)oxy]methyl}-2-(pyridin-2-yl)pyrrolo[2,1-f][1,2,4]triazin-4-yl)pyridin-4-amine]: 7.89; for `O=C(CN1CCCCC1)Nc1cc(Nc2nc(-c3cccc(C(F)(F)F)n3)nn3cccc23)ccn1` [Example 329, 2-(piperidin-1-yl)-N-[4-({2-[6-(trifluoromethyl)pyridin-2-yl]pyrrolo[2,1-f][1,2,4]triazin-4-yl}amino)pyridin-2-yl]acetamide]: 8.77. Then `CC(C)(O)CNCC(=O)Nc1cc(Nc2nc(-c3cccc(C(F)(F)F)n3)nn3cccc23)ccn1` [Example 330, 2-[(2-hydroxy-2-methylpropyl)amino]-N-[4-({2-[6-(trifluoromethyl)pyridin-2-yl]pyrrolo[2,1-f][1,2,4]triazin-4-yl}amino)pyridin-2-yl]acetamide], with 9.22; and `O=C(CN1CCOCC1)Nc1cc(Nc2nc(-c3cccc(C(F)(F)F)n3)nn3cccc23)ccn1` [Example 331, 2-(morpholin-4-yl)-N-[4-({2-[6-(trifluoromethyl)pyridin-2-yl]pyrrolo[2,1-f][1,2,4]triazin-4-yl}amino)pyridin-2-yl]acetamide], with 8.59; and `CC(=O)Nc1cc(Nc2nc(-c3ccc(C(F)(F)F)cn3)nn3cccc23)ccn1` [Example 332, N-[4-({2-[5-(trifluoromethyl)pyridin-2-yl]pyrrolo[2,1-f][1,2,4]triazin-4-yl}amino)pyridin-2-yl]acetamide], with 7.33. On to `CC(=O)Nc1cc(Nc2nc(-c3ccc(F)c(C)n3)nn3cccc23)c(F)cn1` [Example 333, N-(5-fluoro-4-{[2-(5-fluoro-6-methylpyridin-2-yl)pyrrolo[2,1-f][1,2,4]triazin-4-yl]amino}pyridin-2-yl)acetamide], for which the pIC50 is 8.44.

Molecule `O=C(Nc1cc(Nc2nc(-c3cccc(C(F)(F)F)n3)nn3cccc23)ccn1)C1CC1` [Example 335, N-[4-({2-[6-(trifluoromethyl)pyridin-2-yl]pyrrolo[2,1-f][1,2,4]triazin-4-yl}amino)pyridin-2-yl]cyclopropanecarboxamide] gave a pIC50 of 9.43. The same measure for `COCC(=O)Nc1cc(Nc2nc(-c3cccc(C(F)(F)F)n3)nn3cccc23)ccn1` [Example 336, 2-methoxy-N-[4-({2-[6-(trifluoromethyl)pyridin-2-yl]pyrrolo[2,1-f][1,2,4]triazin-4-yl}amino)pyridin-2-yl]acetamide]: 8.80; for `O=C(CCC(F)(F)F)Nc1cc(Nc2nc(-c3cccc(C(F)(F)F)n3)nn3cccc23)ccn1` [Example 337, 4,4,4-trifluoro-N-[4-({2-[6-(trifluoromethyl)pyridin-2-yl]pyrrolo[2,1-f][1,2,4]triazin-4-yl}amino)pyridin-2-yl]butanamide]: 8.48.

What is called pIC50 is the IC50 on a negative log10 scale, so that one unit is a factor of ten. A high value points to a low IC50.

Source of the values: patent US10336761B2, “TGFβ receptor antagonist” (BRISTOL-MYERS SQUIBB COMPANY, priority 2015, dated 2019).
